#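 The compound was tested at five concentrations on cells cultured in 96-well plates, with a 48-hour exposure period. Abbreviation: GI50, concentration required for 50% inhibition of growth.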 The source made the active and inactive calls. Cut-off read from the data, not from the text of the source: active = GI50 up to about 1.1 µM and inactive = higher.
# How the values were obtained:
# Assay in all cases: NCI anticancer screen, dose series, 48 h
# HCC 2998 = tested on: HCC 2998
# NCI/ADR-RES = tested on: NCI/ADR-RES
# SK-MEL-5 = tested on: SK-MEL-5
# COLO 205 = tested on: COLO 205
# A549 = tested on: A549
# HL-60 = tested on: HL-60
# MOLT-4 = tested on: MOLT-4
# RXF 393 = tested on: RXF 393
# SNB-75 = tested on: SNB-75
# NCI-H522 = tested on: NCI-H522
# SN12C = tested on: SN12C
# UO-31 = tested on: UO-31
# RPMI-8226 = tested on: RPMI-8226
# A498 = tested on: A498
# HCT-15 = tested on: HCT-15
# TK-10 = tested on: TK-10
# SK-MEL-2 = tested on: SK-MEL-2
# SF-268 = tested on: SF-268
# IGROV-1 = tested on: IGROV-1
# UACC-62 = tested on: UACC-62
# SK-OV-3 = tested on: SK-OV-3
# UACC-257 = tested on: UACC-257
# ACHN = tested on: ACHN
# CAKI-1 = tested on: CAKI-1
# EKVX = tested on: EKVX
# MDA-N = tested on: MDA-N
# SNB-19 = tested on: SNB-19
# SF-295 = tested on: SF-295
# OVCAR-8 = tested on: OVCAR-8
# Malme-3M = tested on: Malme-3M
# OVCAR-3 = tested on: OVCAR-3
# OVCAR-4 = tested on: OVCAR-4
# HT-29 = tested on: HT-29
# HOP-92 = tested on: HOP-92
# SR = tested on: SR
# NCI-H460 = tested on: NCI-H460
# MDA-MB-231 = tested on: MDA-MB-231
# NCI-H226 = tested on: NCI-H226
# T47D = tested on: T47D
# DU-145 = tested on: DU-145
# NCI-H23 = tested on: NCI-H23
# BT-549 = tested on: BT-549
# Hs-578T = tested on: Hs-578T
# K562 = tested on: K562
# HCT-116 = tested on: HCT-116
# KM12 = tested on: KM12
# HOP-62 = tested on: HOP-62
# PC-3 = tested on: PC-3
# SF-539 = tested on: SF-539
# CCRF-CEM = tested on: CCRF-CEM
# SK-MEL-28 = tested on: SK-MEL-28
# SW-620 = tested on: SW-620
# U-251 = tested on: U-251
# M14 = tested on: M14
# MCF7 = tested on: MCF7
# OVCAR-5 = tested on: OVCAR-5
# LOX IMVI = tested on: LOX IMVI
# 786-0 = tested on: 786-0
# MDA-MB-435 = tested on: MDA-MB-435
compound,measurement,setting,value
COc1cc2nc(-c3ccccc3)cc(O)c2cc1OC,GI50,HCC 2998,16.5 µM (inactive)
same,GI50,NCI/ADR-RES,54.8 µM (inactive)
same,GI50,SK-MEL-5,5.78 µM (inactive)
same,GI50,COLO 205,4.2 µM (inactive)
same,GI50,A549,18.5 µM (inactive)
same,GI50,HL-60,5.78 µM (inactive)
same,GI50,MOLT-4,17.6 µM (inactive)
same,GI50,RXF 393,21.2 µM (inactive)
same,GI50,SNB-75,12.1 µM (inactive)
same,GI50,NCI-H522,5.83 µM (inactive)
same,GI50,SN12C,31.4 µM (inactive)
same,GI50,UO-31,52 µM (inactive)
same,GI50,RPMI-8226,27 µM (inactive)
same,GI50,A498,40.6 µM (inactive)
same,GI50,HCT-15,10.2 µM
same,GI50,TK-10,55.8 µM (inactive)
same,GI50,SK-MEL-2,22.4 µM (inactive)
same,GI50,SF-268,41.6 µM (inactive)
same,GI50,IGROV-1,28.2 µM (inactive)
same,GI50,UACC-62,10.8 µM (inactive)
same,GI50,SK-OV-3,35.6 µM (inactive)
same,GI50,UACC-257,63.7 µM (inactive)
same,GI50,ACHN,41.1 µM (inactive)
same,GI50,CAKI-1,23.6 µM (inactive)
same,GI50,EKVX,> 100 µM (inactive)
same,GI50,MDA-N,2.18 µM (inactive)
same,GI50,SNB-19,25.2 µM (inactive)
same,GI50,SF-295,18.5 µM (inactive)
same,GI50,OVCAR-8,35.1 µM (inactive)
same,GI50,Malme-3M,> 50.6 µM (inactive)
same,GI50,OVCAR-3,4.44 µM (inactive)
same,GI50,OVCAR-4,> 73.3 µM (inactive)
same,GI50,HT-29,9.84 µM (inactive)
same,GI50,HOP-92,33.7 µM (inactive)
same,GI50,SR,6 µM (inactive)
same,GI50,NCI-H460,11.2 µM (inactive)
same,GI50,MDA-MB-231,26.7 µM (inactive)
same,GI50,NCI-H226,14.4 µM (inactive)
same,GI50,T47D,> 100 µM (inactive)
same,GI50,DU-145,54 µM (inactive)
same,GI50,NCI-H23,21.8 µM (inactive)
same,GI50,BT-549,> 100 µM (inactive)
same,GI50,Hs-578T,25.1 µM (inactive)
same,GI50,K562,4.76 µM (inactive)
same,GI50,HCT-116,6.1 µM (inactive)
same,GI50,KM12,3.81 µM (inactive)
same,GI50,HOP-62,19 µM (inactive)
same,GI50,PC-3,23 µM (inactive)
same,GI50,SF-539,14.3 µM (inactive)
same,GI50,CCRF-CEM,8 µM (inactive)
same,GI50,SK-MEL-28,36.2 µM (inactive)
same,GI50,SW-620,10.8 µM (inactive)
same,GI50,U-251,6.95 µM (inactive)
same,GI50,M14,9.02 µM (inactive)
same,GI50,MCF7,2.54 µM (inactive)
same,GI50,OVCAR-5,41.1 µM (inactive)
same,GI50,LOX IMVI,10.7 µM (inactive)
same,GI50,786-0,27.8 µM (inactive)
same,GI50,MDA-MB-435,2.86 µM (inactive)
Nc1nc(S)c2c(N)n[nH]c2c1C(=O)Nc1ccc(Cl)cc1,GI50,HCC 2998,> 100 µM (inactive)
same,GI50,NCI/ADR-RES,> 100 µM (inactive)
same,GI50,SK-MEL-5,> 100 µM (inactive)
same,GI50,COLO 205,> 100 µM (inactive)
same,GI50,A549,> 100 µM (inactive)
same,GI50,HL-60,21.2 µM (inactive)
same,GI50,MOLT-4,> 100 µM (inactive)
same,GI50,RXF 393,> 100 µM (inactive)
same,GI50,SNB-75,> 100 µM (inactive)
same,GI50,NCI-H522,96.4 µM (inactive)
same,GI50,SN12C,> 100 µM (inactive)
same,GI50,UO-31,74 µM (inactive)
same,GI50,RPMI-8226,> 100 µM (inactive)
same,GI50,A498,> 100 µM (inactive)
same,GI50,HCT-15,74.8 µM
same,GI50,TK-10,> 100 µM (inactive)
same,GI50,SK-MEL-2,> 100 µM (inactive)
same,GI50,SF-268,> 100 µM (inactive)
same,GI50,IGROV-1,> 100 µM (inactive)
same,GI50,UACC-62,18.4 µM (inactive)
same,GI50,SK-OV-3,> 100 µM (inactive)
same,GI50,UACC-257,77.1 µM (inactive)
same,GI50,CAKI-1,60.3 µM (inactive)
same,GI50,EKVX,> 100 µM (inactive)
same,GI50,MDA-N,89.7 µM (inactive)
same,GI50,SNB-19,> 100 µM (inactive)
same,GI50,OVCAR-8,32.1 µM (inactive)
same,GI50,Malme-3M,> 100 µM (inactive)
same,GI50,OVCAR-3,> 100 µM (inactive)
same,GI50,OVCAR-4,64.4 µM (inactive)
same,GI50,HT-29,> 100 µM (inactive)
same,GI50,HOP-92,> 100 µM (inactive)
same,GI50,SR,24.3 µM (inactive)
same,GI50,NCI-H460,54.1 µM (inactive)
same,GI50,MDA-MB-231,> 100 µM (inactive)
same,GI50,NCI-H226,> 100 µM (inactive)
same,GI50,T47D,44.6 µM (inactive)
same,GI50,DU-145,47 µM (inactive)
same,GI50,BT-549,> 100 µM (inactive)
same,GI50,Hs-578T,> 100 µM (inactive)
same,GI50,K562,91.6 µM (inactive)
same,GI50,HCT-116,> 100 µM (inactive)
same,GI50,KM12,21.4 µM (inactive)
same,GI50,PC-3,> 100 µM (inactive)
same,GI50,SF-539,> 100 µM (inactive)
same,GI50,SK-MEL-28,> 100 µM (inactive)
same,GI50,SW-620,29.6 µM (inactive)
same,GI50,U-251,> 100 µM (inactive)
same,GI50,M14,45.4 µM (inactive)
same,GI50,MCF7,> 100 µM (inactive)
same,GI50,OVCAR-5,> 100 µM (inactive)
same,GI50,LOX IMVI,5.41 µM (inactive)
same,GI50,786-0,45.9 µM (inactive)
same,GI50,MDA-MB-435,84.5 µM (inactive)
O=C(O)c1ccc([N+](=O)[O-])c2cc3cnccc3nc12,GI50,HCC 2998,22.3 µM (inactive)
same,GI50,NCI/ADR-RES,25.9 µM (inactive)
same,GI50,SK-MEL-5,19.1 µM (inactive)
same,GI50,COLO 205,21.5 µM (inactive)
same,GI50,HL-60,> 100 µM (inactive)
same,GI50,MOLT-4,3.91 µM (inactive)
same,GI50,RXF 393,27.1 µM (inactive)
same,GI50,SNB-75,19.3 µM (inactive)
same,GI50,NCI-H522,13.4 µM (inactive)
same,GI50,SN12C,16.3 µM (inactive)
same,GI50,UO-31,23.3 µM (inactive)
same,GI50,RPMI-8226,39.7 µM (inactive)
same,GI50,A498,70 µM (inactive)
same,GI50,HCT-15,20.1 µM
same,GI50,SK-MEL-2,17.9 µM (inactive)
same,GI50,IGROV-1,34.7 µM (inactive)
same,GI50,UACC-62,12.4 µM (inactive)
same,GI50,SK-OV-3,56.9 µM (inactive)
same,GI50,CAKI-1,> 10 µM (inactive)
same,GI50,MDA-N,20.6 µM (inactive)
same,GI50,SNB-19,> 10 µM (inactive)
same,GI50,SF-295,43.5 µM (inactive)
same,GI50,OVCAR-8,22.4 µM (inactive)
same,GI50,Malme-3M,15.2 µM (inactive)
same,GI50,OVCAR-3,21.2 µM (inactive)
same,GI50,HT-29,22.6 µM (inactive)
same,GI50,HOP-92,30.1 µM (inactive)
same,GI50,SR,43.2 µM (inactive)
same,GI50,NCI-H460,38.2 µM (inactive)
same,GI50,MDA-MB-231,19.4 µM (inactive)
same,GI50,NCI-H226,30.3 µM (inactive)
same,GI50,T47D,18.6 µM (inactive)
same,GI50,DU-145,33 µM (inactive)
same,GI50,NCI-H23,24.6 µM (inactive)
same,GI50,BT-549,19.1 µM (inactive)
same,GI50,Hs-578T,35 µM (inactive)
same,GI50,K562,5.78 µM (inactive)
same,GI50,HCT-116,18.4 µM (inactive)
same,GI50,KM12,22.4 µM (inactive)
same,GI50,HOP-62,31.6 µM (inactive)
same,GI50,PC-3,15.5 µM (inactive)
same,GI50,CCRF-CEM,2.31 µM (inactive)
same,GI50,SK-MEL-28,18.6 µM (inactive)
same,GI50,U-251,19.9 µM (inactive)
same,GI50,M14,17.8 µM (inactive)
same,GI50,MCF7,19.3 µM (inactive)
same,GI50,OVCAR-5,33.7 µM (inactive)
same,GI50,MDA-MB-435,26.9 µM (inactive)

# Reference: ChEMBL document CHEMBL1201862, “PubChem BioAssay data set” (2004)
